Laboratory results as given in ChEMBL document CHEMBL4024706 (Eur J Med Chem, 2017).

Key:
[1] = target: Transient receptor potential cation channel subfamily M member 6 (Homo sapiens) (UniProt Q9BX84); assay: Inhibition of wild-type human partial length TRPM6 (Q1723 to I1998 residues) expressed in mammalian expression system assessed as residual activity at 1 uM by Kinomescan method relative to control
[2] = tested on: Tyrosine-protein kinase ABL1 (Homo sapiens), P00519 [Q252H]; assay: Inhibition of human non-phosphorylated ABL1 Q252H mutant (S229 to K512 residues) expressed in mammalian expression system assessed as residual activity at 1 uM by Kinomescan method relative to control
[3] = target: STE20-like serine/threonine-protein kinase (Homo sapiens) (UniProt Q9H2G2); assay: Inhibition of wild-type human partial length SLK (S14 to A307 residues) expressed in bacterial expression system assessed as residual activity at 1 uM by Kinomescan method relative to control
[4] = target: Proto-oncogene tyrosine-protein kinase ROS (Homo sapiens) (UniProt P08922); assay: Inhibition of wild-type human partial length ROS1 (A1921 to N2240 residues) expressed in bacterial expression system assessed as residual activity at 1 uM by Kinomescan method relative to control
[5] = target: Tyrosine-protein kinase Blk (Homo sapiens) (UniProt P51451); assay: Inhibition of wild-type human partial length BLK (G211 to L503 residues) expressed in bacterial expression system assessed as residual activity at 1 uM by Kinomescan method relative to control
[6] = target: AP2-associated protein kinase 1 (Homo sapiens) (UniProt Q2M2I8); assay: Inhibition of human wild-type AAK1 (G25 to L333 residues) expressed in bacterial expression system assessed as residual activity at 1 uM by Kinomescan method relative to control
[7] = tested on: Epidermal growth factor receptor (Homo sapiens), P00533 [G719C]; assay: Inhibition of human partial length EGFR G719C mutant (R669 to V1011 residues) expressed in bacterial expression system assessed as residual activity at 1 uM by Kinomescan method relative to control
[8] = target: MAP/microtubule affinity-regulating kinase 4 (Homo sapiens) (UniProt Q96L34); assay: Inhibition of wild-type human partial length MARK4 (K29 to G340 residues) expressed in bacterial expression system assessed as residual activity at 1 uM by Kinomescan method relative to control
[9] = tested on: Leucine-rich repeat serine/threonine-protein kinase 2 (Homo sapiens), Q5S007 [G2019S]; assay: Inhibition of human partial length LRRK2 G2019S mutant (H970 to E2527 residues) expressed in mammalian expression system assessed as residual activity at 1 uM by Kinomescan method relative to control
[10] = target: Cyclin-dependent kinase 8 (Homo sapiens) (UniProt P49336); assay: Inhibition of wild-type human partial length CDK8 (M1 to T360 residues) expressed in bacterial expression system assessed as residual activity at 1 uM by Kinomescan method relative to control
[11] = target: Mitogen-activated protein kinase 10 (Homo sapiens) (UniProt P53779); assay: Inhibition of wild-type human partial length JNK3 (V28 to Q422 residues) expressed in mammalian expression system assessed as residual activity at 1 uM by Kinomescan method relative to control
[12] = target: Ephrin type-A receptor 4 (Homo sapiens) (UniProt P54764); assay: Inhibition of wild-type human partial length EPHA4 (T601 to R897 residues) expressed in bacterial expression system assessed as residual activity at 1 uM by Kinomescan method relative to control
Homo sapiens = organism: Homo sapiens; assay: Inhibition of human partial length FLT3 ITD/F691L double mutant expressed in bacterial expression system assessed as residual activity at 1 uM by Kinomescan method relative to control
[13] = target: Serine/threonine-protein kinase haspin (Homo sapiens) (UniProt Q8TF76); assay: Inhibition of wild-type human partial length HASPIN (I452 to K798 residues) expressed in mammalian expression system assessed as residual activity at 1 uM by Kinomescan method relative to control
[14] = target: Phosphatidylinositol 3-kinase C2 domain-containing subunit gamma (Homo sapiens) (UniProt O75747); assay: Inhibition of wild-type human partial length PIK3C2G (M1 to I1446 residues) expressed in mammalian expression system assessed as residual activity at 1 uM by Kinomescan method relative to control
[15] = target: cGMP-dependent protein kinase 2 (Homo sapiens) (UniProt Q13237); assay: Inhibition of wild-type human partial length PRKG2 (S422 to F762 residues) expressed in mammalian expression system assessed as residual activity at 1 uM by Kinomescan method relative to control
Pfeiffer = assay: Growth inhibition of human Pfeiffer cells; format: functional; details: Homo sapiens, Pfeiffer
[16] = target: Ephrin type-B receptor 3 (Homo sapiens) (UniProt P54753); assay: Inhibition of wild-type human partial length EPHB3 (Q599 to T928 residues) expressed in bacterial expression system assessed as residual activity at 1 uM by Kinomescan method relative to control
[17] = tested on: Mast/stem cell growth factor receptor Kit (Homo sapiens), P10721 [V559D]; assay: Inhibition of human partial length KIT V559D mutant (Y545 to D952 residues) expressed in bacterial expression system assessed as residual activity at 1 uM by Kinomescan method relative to control
[18] = target: Mitogen-activated protein kinase kinase kinase 11 (Homo sapiens) (UniProt Q16584); assay: Inhibition of wild-type human partial length MLK3 (I77 to W399 residues) expressed in bacterial expression system assessed as residual activity at 1 uM by Kinomescan method relative to control
[19] = target: Mitogen-activated protein kinase 6 (Homo sapiens) (UniProt Q16659); assay: Inhibition of wild-type human partial length ERK3 (M1 to P413 residues) expressed in bacterial expression system assessed as residual activity at 1 uM by Kinomescan method relative to control
[20] = target: Serine/threonine-protein kinase RIO2 (Homo sapiens) (UniProt Q9BVS4); assay: Inhibition of wild-type human partial length RIOK2 (M1 to D313 residues) expressed in mammalian expression system assessed as residual activity at 1 uM by Kinomescan method relative to control
[21] = tested on: Mast/stem cell growth factor receptor Kit (Homo sapiens), P10721 [V559D,T670I]; assay: Inhibition of human partial length KIT V559D/T670I double mutant (Y545 to D952 residues) expressed in bacterial expression system assessed as residual activity at 1 uM by Kinomescan method relative to control
[22] = target: Vascular endothelial growth factor receptor 1 (Homo sapiens) (UniProt P17948); assay: Inhibition of wild-type human partial length FLT1 (R781 to F1239 residues) expressed in bacterial expression system assessed as residual activity at 1 uM by Kinomescan method relative to control
[23] = target: Dual specificity mitogen-activated protein kinase kinase 1 (Homo sapiens) (UniProt Q02750); assay: Inhibition of wild-type human full length MEK1 (M1 to V393 residues) expressed in mammalian expression system assessed as residual activity at 1 uM by Kinomescan method relative to control

Chain of Ephrin type-B receptor 3 (Homo sapiens) (P54753 whole entry, the tested form may be a part): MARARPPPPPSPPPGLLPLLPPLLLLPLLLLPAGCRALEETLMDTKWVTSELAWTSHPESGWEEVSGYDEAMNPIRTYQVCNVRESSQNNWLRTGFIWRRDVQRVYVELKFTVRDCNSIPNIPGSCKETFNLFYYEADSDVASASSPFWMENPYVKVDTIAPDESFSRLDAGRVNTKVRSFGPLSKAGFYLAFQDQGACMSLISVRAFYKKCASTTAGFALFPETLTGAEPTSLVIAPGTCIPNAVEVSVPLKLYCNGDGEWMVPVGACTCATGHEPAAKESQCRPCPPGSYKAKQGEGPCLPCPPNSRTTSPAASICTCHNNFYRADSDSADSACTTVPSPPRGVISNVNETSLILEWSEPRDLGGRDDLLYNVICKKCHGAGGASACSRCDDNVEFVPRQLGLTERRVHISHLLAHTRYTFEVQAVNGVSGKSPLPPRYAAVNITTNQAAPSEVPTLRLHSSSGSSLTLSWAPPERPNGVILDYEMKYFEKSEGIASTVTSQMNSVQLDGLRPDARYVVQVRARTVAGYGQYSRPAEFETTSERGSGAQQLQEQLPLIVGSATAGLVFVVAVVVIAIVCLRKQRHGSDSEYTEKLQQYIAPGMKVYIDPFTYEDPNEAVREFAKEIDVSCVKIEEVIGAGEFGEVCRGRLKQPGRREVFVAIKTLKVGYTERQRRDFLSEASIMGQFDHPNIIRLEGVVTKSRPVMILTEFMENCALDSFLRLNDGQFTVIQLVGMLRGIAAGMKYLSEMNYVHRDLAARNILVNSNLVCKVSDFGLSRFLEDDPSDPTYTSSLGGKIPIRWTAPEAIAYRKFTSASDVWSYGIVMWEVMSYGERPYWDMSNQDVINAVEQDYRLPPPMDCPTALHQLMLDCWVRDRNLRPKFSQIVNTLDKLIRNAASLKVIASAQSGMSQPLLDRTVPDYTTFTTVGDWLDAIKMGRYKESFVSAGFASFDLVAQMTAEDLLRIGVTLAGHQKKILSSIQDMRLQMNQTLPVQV
Chain of Serine/threonine-protein kinase haspin (Homo sapiens) (Q8TF76 whole entry, the tested form may be a part): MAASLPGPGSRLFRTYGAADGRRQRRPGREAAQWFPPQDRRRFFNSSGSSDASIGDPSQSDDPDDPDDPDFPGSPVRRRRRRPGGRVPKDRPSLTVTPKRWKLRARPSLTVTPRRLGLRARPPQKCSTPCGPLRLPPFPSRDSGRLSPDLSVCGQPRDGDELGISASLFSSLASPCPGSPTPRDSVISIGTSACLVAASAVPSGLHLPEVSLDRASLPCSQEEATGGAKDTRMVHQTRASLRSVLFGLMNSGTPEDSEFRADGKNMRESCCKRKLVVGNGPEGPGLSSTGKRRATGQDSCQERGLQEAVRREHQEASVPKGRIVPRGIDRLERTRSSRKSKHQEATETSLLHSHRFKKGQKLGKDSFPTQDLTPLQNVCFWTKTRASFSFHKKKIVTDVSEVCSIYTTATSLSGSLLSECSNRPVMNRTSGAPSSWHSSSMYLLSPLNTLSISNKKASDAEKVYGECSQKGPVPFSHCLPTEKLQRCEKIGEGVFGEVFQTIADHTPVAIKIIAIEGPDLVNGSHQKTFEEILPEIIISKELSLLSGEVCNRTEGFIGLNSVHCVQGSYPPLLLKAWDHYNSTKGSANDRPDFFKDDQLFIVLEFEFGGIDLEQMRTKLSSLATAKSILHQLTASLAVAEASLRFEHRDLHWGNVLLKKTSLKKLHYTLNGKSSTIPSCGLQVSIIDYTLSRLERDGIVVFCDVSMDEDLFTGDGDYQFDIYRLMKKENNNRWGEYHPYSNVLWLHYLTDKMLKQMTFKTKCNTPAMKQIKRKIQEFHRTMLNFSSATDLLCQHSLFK
Chain of Serine/threonine-protein kinase RIO2 (Homo sapiens) (Q9BVS4 whole entry, looked up, the tested form may be a part): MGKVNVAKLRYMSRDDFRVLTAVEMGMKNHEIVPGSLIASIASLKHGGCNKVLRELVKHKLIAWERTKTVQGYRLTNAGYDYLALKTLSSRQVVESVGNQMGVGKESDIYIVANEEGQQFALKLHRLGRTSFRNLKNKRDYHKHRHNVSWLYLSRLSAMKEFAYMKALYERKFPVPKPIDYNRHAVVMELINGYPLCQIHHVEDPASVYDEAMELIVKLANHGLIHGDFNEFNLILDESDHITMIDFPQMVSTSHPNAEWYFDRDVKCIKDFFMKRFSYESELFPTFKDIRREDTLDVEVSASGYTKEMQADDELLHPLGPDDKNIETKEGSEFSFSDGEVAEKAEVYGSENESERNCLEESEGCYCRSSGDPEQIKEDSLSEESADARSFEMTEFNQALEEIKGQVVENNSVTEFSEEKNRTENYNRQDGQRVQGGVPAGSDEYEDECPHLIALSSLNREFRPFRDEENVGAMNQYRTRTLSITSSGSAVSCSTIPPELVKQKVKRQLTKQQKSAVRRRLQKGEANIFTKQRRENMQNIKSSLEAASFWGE
Chain of Mitogen-activated protein kinase 10 (Homo sapiens) (P53779 whole entry, the tested form may be a part): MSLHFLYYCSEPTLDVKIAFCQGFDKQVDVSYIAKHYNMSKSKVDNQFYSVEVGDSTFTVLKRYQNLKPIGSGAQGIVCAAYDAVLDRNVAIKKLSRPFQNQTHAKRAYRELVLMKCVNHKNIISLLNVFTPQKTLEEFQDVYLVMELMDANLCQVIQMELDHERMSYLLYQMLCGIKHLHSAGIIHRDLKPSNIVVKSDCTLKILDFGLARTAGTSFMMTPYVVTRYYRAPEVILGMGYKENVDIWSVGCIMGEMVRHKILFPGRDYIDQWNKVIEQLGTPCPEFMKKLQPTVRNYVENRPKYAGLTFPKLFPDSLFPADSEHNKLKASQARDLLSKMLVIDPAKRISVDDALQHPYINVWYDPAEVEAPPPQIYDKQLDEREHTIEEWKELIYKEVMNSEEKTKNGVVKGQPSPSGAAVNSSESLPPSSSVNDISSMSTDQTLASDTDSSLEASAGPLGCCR
Chain of STE20-like serine/threonine-protein kinase (Homo sapiens) (Q9H2G2 whole entry, looked up, the tested form may be a part): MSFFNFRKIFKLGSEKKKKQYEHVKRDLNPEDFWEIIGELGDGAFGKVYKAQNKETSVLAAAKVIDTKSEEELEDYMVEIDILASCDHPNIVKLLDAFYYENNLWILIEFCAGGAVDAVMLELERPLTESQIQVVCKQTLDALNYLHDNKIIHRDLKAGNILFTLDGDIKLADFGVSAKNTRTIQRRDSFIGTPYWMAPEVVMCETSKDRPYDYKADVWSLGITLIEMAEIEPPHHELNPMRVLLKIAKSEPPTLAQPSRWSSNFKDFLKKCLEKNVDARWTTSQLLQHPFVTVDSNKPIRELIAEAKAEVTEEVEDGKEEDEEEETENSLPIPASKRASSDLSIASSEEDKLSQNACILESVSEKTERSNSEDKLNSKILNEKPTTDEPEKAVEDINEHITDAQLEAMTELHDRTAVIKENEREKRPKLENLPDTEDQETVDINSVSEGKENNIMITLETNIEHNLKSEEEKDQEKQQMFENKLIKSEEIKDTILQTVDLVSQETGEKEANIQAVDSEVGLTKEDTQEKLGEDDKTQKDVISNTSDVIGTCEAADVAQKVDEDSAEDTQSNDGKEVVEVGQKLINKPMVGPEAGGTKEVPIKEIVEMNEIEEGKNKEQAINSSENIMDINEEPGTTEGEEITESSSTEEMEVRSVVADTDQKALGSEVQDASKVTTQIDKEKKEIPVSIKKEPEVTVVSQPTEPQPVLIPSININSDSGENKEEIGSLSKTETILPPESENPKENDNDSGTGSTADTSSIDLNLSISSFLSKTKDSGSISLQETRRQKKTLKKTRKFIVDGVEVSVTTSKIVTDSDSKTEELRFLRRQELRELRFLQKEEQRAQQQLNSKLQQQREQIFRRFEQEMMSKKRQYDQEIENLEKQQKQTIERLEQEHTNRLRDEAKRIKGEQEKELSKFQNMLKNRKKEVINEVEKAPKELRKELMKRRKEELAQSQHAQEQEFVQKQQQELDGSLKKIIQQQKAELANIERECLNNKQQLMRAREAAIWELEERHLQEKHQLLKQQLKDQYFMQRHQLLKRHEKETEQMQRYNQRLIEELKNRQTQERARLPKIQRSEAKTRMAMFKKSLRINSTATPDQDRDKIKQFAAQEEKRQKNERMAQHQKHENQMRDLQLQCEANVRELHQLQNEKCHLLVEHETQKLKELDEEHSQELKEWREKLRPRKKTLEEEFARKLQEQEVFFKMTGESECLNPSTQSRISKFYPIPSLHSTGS
Chain of Tyrosine-protein kinase Blk (Homo sapiens) (P51451 2-505 limits assumed): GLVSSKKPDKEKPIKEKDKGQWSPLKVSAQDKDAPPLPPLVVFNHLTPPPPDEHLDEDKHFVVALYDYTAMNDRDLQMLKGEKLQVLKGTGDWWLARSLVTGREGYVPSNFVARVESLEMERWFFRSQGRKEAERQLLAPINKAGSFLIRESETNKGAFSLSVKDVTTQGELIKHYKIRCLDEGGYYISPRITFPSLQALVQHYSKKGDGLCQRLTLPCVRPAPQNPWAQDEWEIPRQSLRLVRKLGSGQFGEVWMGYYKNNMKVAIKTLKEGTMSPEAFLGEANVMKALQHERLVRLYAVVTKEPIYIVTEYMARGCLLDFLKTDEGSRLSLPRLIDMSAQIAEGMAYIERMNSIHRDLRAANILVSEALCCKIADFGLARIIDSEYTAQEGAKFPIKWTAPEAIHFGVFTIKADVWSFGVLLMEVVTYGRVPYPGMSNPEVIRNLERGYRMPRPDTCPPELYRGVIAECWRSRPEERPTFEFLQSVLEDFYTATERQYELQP
Chain of Cyclin-dependent kinase 8 (Homo sapiens) (P49336 whole entry, the tested form may be a part): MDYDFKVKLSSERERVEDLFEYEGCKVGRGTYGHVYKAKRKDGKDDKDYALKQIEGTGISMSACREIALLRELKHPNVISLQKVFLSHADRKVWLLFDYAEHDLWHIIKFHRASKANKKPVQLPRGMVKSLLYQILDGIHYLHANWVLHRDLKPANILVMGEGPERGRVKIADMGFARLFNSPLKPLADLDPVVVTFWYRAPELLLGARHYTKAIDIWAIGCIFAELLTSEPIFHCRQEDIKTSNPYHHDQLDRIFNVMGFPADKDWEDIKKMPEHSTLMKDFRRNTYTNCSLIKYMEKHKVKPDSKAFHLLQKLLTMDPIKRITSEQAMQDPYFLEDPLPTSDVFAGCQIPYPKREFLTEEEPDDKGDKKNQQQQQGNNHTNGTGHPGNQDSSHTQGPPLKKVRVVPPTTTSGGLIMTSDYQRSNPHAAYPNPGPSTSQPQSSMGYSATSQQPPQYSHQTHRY

## C=CC(=O)Nc1cc(Nc2cc(-c3cccc(NC(=O)c4ccc(C(C)(C)C)cc4)c3C)cn(C)c2=O)ccc1C(=O)N1CCOCC1
[1]
  Activity: 99%
[2]
  Activity: 100%
[3]
  Activity: 100%
[4]
  Activity: 100%
[5]
  Activity: 82%
[6]
  Activity: 96%
[7]
  Activity: 100%
[8]
  Activity: 91%
[9]
  Activity: 58%
[10]
  Activity: 100%
[11]
  Activity: 91%
[12]
  Activity: 83%
Homo sapiens
  Activity: 87%
[13]
  Activity: 54%
[14]
  Activity: 95%
[15]
  Activity: 96%
Pfeiffer
  GI50: 4.5 µM
[16]
  Activity: 92%
[17]
  Activity: 93%
[18]
  Activity: 100%
[19]
  Activity: 100%
[20]
  Activity: 100%
[21]
  Activity: 96%
[22]
  Activity: 97%
[23]
  Activity: 100%
